Test results reported in patent publication US8067422B2, “Crystal form of phenylamino pyrimidine derivatives” (Natco Pharma Limited, priority 2008, dated 2011).

Tests used:
[1] = system: AKT, ERK and Pi3k in 4910 glioma cells; assay: Western blot analysis, 4910; type: cell-based, human
Experimental: (§1) Western blot analysis of 4910, 5310 and U87 glioma cells and MDAMB231 and ZR71 breast cancer cells in the presence of specified concentrations of compounds were assessed as per standard protocols. Cells were treated with AN019, AN024 or Temozolomide at the specified concentrations. 24 h after treatment, cells were collected and cell lysates extracted. Equal quantities of proteins were fractionated by SDS-PAGE. The fractionated proteins were blotted on to nylon membranes and immunoprobed for AKT, ERK and Pi3k. Breast cancer cell protein isolates were additionally immunoprobed for EGFR, ErbB1, ErbB2 and ErbB3.

[2] = system: 4910 glioma cells; assay: In vitro angiogenic assay, 4910 conditioned media on human dermal endothelial cells; type: cell-based; details: 4910 cells
Experimental: (§2) The in vitro angiogenesis of 4910, 5310 and U87 glioma cells and MDAMB231 and ZR71 breast cancer cells in the presence of specified concentrations of compounds were determined as follows, cells (2×10^4/well) were seeded in 8-well chamber slides and were treated with various concentrations of test compounds. After a 24 h incubation period, the conditioned media was removed and added to a 4×10^4 human dermal endothelial cell (monolayer in 8-well chamber slides) and the human dermal endothelial cells were allowed to grow for 72 h. Cells were then fixed in 3.7% formaldehyde and stained with H&E and photographed.

[3] = system: 5310 glioma cells; assay: Matrigel invasion assay (modified Boyden chamber), 5310; type: cell-based; details: 5310
Experimental: (§3) The in vitro invasiveness of 4910, 5310 and U87 glioma cells and MDAMB231 and ZR71 breast cancer cells in the presence of specified concentrations of compounds were assessed using a modified Boyden chamber assay. Cells were treated with these compounds for 48 h. 1×10^6 cells were suspended in 600 μl of serum-free medium supplemented with 0.2% BSA and placed in the upper compartment of the transwell chambers (Corning Costar Fischer Scientific Cat #07-200-158, Pittsburgh Pa.) coated with Matrigel (0.7 mg/ml). The lower compartment of the chamber was filled with 200 μl of serum medium and the cells were allowed to migrate for 24 h. After incubation, the cells were fixed and stained with Hema-3 and quantified as previously described (Mohanam et al. 1993). The migrated cells were imaged microscopically to determine the reduction in invasiveness induced by the compounds of this invention.

[4] = system: 5310 glioma cells; assay: In vitro angiogenic assay, 5310 conditioned media on human dermal endothelial cells; type: cell-based; details: 5310 cells
Experimental: as §2

[5] = system: ZR71 breast cancer cells; assay: Matrigel invasion assay (modified Boyden chamber), ZR-71; type: cell-based; details: ZR-71
Experimental: as §3

[6] = system: Baf3 murine leukemia cells (T315I); assay: Blast cell count in nude mice implanted with Baf3 T315I cells; type: in vivo; details: Baf3T315I; Imatinib 10 mg/kg, AN019 20 mg/kg, AN024 20 mg/kg, oral gavage or ip; day 42
Description: (§4) Blood smears were obtained via the tail vein or via the femoral vein every 6th day and blast cells counted and graphically represented.
(§5) Abdominal swelling and decrease in activity was monitored daily, blood smear taken via the tail vein or the femoral vein every 6th day and H&E stained as per standard protocols. 42 days after implantation, mice were sacrificed and spleens harvested.
(§6) Nude mice were intraperitoneally implanted with Baf3 mutant cells (wt, T315I, M351T or E255K). […] Blood was drawn from the femoral vein or tail vein every 6th day and blast cell count determined and graphically represented.

[7] = system: U87 glioma cells; assay: In vitro angiogenic assay, U87 conditioned media on human dermal endothelial cells; type: cell-based
Experimental: as §2

[8] = system: K562; assay: ED50 (po) in leukemic mice (K562); details: po, mice
[9] = system: K562 luciferase expressing cells; assay: Leukemic survival study in nude mice implanted with K562 luciferase expressing cells; type: in vivo
Description: K562 luciferase expressing cells were implanted intraperitoneally into nude mice; the mice were scanned using the xenogeny IVIS image station after ip injections of luciferin does determine implantations. Drug treatment was started as in previous studies day 15 after implantation. The animals were given treatment till day 42, after which drug treatment was stopped and survival of the animals determined as per the animal care regulations. […] Drug treatment was withdrawn on day 42 post implantation and survival of animals determined.

[10] = system: Baf3 murine leukemia cells (E255K); assay: Blast cell count in nude mice implanted with Baf3 E255K cells; type: in vivo; details: Baf3 E225K (E255K); Imatinib 10 mg/kg, AN019 20 mg/kg, AN024 20 mg/kg, oral gavage or ip; day 42
Description: as §4, §5, §6

[11] = system: AKT, ERK and Pi3k in U87 glioma cells; assay: Western blot analysis, U87; type: cell-based
Experimental: as §1

[12] = system: MDAMB231 breast cancer cells; assay: Matrigel invasion assay (modified Boyden chamber), MDA-MB-231; type: cell-based; details: MDA-MB-231
Experimental: as §3

[13] = system: 4910 glioma cells; assay: Matrigel invasion assay (modified Boyden chamber), 4910; type: cell-based, human; details: 4910
Experimental: as §3

[14] = system: AKT, ERK and Pi3k in ZR71 breast cancer cells; assay: Western blot analysis, ZR71; type: cell-based
Experimental: as §1

[15] = system: Baf3 murine leukemia cells (M351T); assay: Blast cell count in nude mice implanted with Baf3 M351T cells; type: in vivo; details: Baf3M351T; Imatinib 10 mg/kg, AN019 20 mg/kg, AN024 20 mg/kg, oral gavage or ip; day 42
Description: as §4, §5, §6

[16] = system: ZR71 breast cancer cells; assay: In vitro angiogenic assay, ZR-71 conditioned media on human dermal endothelial cells; type: cell-based; details: ZR-71 cells; radiation not distinguished
Experimental: as §2

[17] = not given; remark: listed apart in the source
[18] = system: U87 glioma cells; assay: Matrigel invasion assay (modified Boyden chamber), U87; type: cell-based; details: U87
Experimental: as §3

[19] = system: 4910 human glioma xenograft cells; assay: Glioma radiation study, nude mice intracranially implanted with 4910 cells; type: in vivo
Experimental: Nude mice were intracranially implanted with 4910 human glioma xenograft cells (1×10^6 cells). Ten days after implantation mice were treated with AN019, AN024 or temozolomide with or without radiation (5 Gy/week). The experiment was terminated at day 40 post implantation.

[20] = system: MDAMB231 breast cancer cells; assay: In vitro angiogenic assay, MDA-MB-231 conditioned media on human dermal endothelial cells; type: cell-based; details: MDA-MB-231 cells
Experimental: as §2

Cc1ccc(NC(=O)c2cccc(S(=O)(=O)C(F)(F)F)c2)cc1Nc1nccc(-c2cccnc2)n1 [AN024]
AKT levels (Western blot) ([1]; 4910, after radiation): decrease in AKT levels was enhanced
AKT levels (Western blot) ([1]; 4910, without radiation): decrease in AKT levels
Inhibition of angiogenesis ([2]; after radiation): significant inhibition of angiogenesis
Inhibition of angiogenesis ([2]; without radiation): significant inhibition of angiogenesis
±Change in invasion after radiation [3]: +5%
Inhibition of angiogenesis ([4]; after radiation): angiogenesis further inhibited
Inhibition of angiogenesis ([4]; control conditions (without radiation)): inhibition of angiogenesis
±Change in invasion after radiation [5]: −3%
LD50 (po) Mice: 1440 mg/kg
Blast cell count in blood smears [6]: significant decrease in blast cell count
Inhibition of angiogenesis ([7]; after radiation): increase in inhibition
Inhibition of angiogenesis ([7]; without radiation): significant retardation in angiogenesis
ED50 (po) Mice [8]: 10 mg/kg
Blast cell count from blood smears, effectiveness after withdrawal of drug treatment ([9]; drug treatment withdrawn on day 42): showed effectiveness after withdrawal of drug treatment
Animals showing no signs of leukemia / complete absence of leukemic symptoms ([9]; of 10 animals, drug withdrawn day 42, AN024 on day 55): 8 animals
Mortality ([9]; treatment day 15 to day 42, then withdrawn, 10 animals): mortality on day 38
Blast cell count in blood smears [10]: significant decrease in blast cell count
ERK levels (Western blot) ([11]; U87, after radiation): decrease was enhanced
ERK levels (Western blot) ([11]; U87, without radiation): slight decrease in ERK levels
±Change in invasion after radiation [12]: +4%
±Change in invasion after radiation [13]: −17%
AKT levels (Western blot) ([14]; ZR71, after radiation): decrease in AKT expression
AKT levels (Western blot) ([14]; ZR71, unirradiated): did not show any significant change
PI3k levels (Western blot) ([14]; ZR71, with radiation): decrease in PI3k levels
Blast cell count in blood smears [15]: significant decrease in blast cell count
Inhibition of angiogenesis [16]: complete inhibition of angiogenesis
MTD Mice [17]: 500 mg/kg
±Change in invasion after radiation [18]: −24%
Animals cured / no observable intracranial tumor ([19]; of 10 animals, with radiation (5 Gy/week), day 40 post implantation): 7 animals
Animals cured / complete absence of intracranial tumours ([19]; of 10 animals, without radiation, day 40 post implantation): 3 animals
Intracranial tumour size and appearance ([19]; with radiation (5 Gy/week)): well defined surgically respectable tumours
Intracranial tumour size and appearance ([19]; without radiation): tumours were well defined and not showing diffuse edges
Inhibition of angiogenesis ([20]; after radiation): only a slight inhibition
Inhibition of angiogenesis ([20]; control condition (without radiation)): only a slight inhibition
